The source of these data is patent US6448286B1, “Imino pyrrolidine derivatives useful as nitric oxide synthase inhibitors” (G.D. Searle & Co., priority 1993, dated 2002).

Counter-ions that a name gives are not always drawn. Like-named read-outs stand apart in the source and are kept apart here. Some results are limits rather than exact numbers.

For data set [1], the target named is T1, Mouse inducible nitric oxide synthase (miNOS) (Mus musculus, UniProt P29477).
T1 construct: prepared from an extract of LPS-treated RAW 264.7 cells and partially purified by DEAE-Sepharose chromatography; endogenous in cells; host or cells: LPS-treated RAW 264.7 cells (mouse macrophage line)
T1 sequence (P29477 whole entry): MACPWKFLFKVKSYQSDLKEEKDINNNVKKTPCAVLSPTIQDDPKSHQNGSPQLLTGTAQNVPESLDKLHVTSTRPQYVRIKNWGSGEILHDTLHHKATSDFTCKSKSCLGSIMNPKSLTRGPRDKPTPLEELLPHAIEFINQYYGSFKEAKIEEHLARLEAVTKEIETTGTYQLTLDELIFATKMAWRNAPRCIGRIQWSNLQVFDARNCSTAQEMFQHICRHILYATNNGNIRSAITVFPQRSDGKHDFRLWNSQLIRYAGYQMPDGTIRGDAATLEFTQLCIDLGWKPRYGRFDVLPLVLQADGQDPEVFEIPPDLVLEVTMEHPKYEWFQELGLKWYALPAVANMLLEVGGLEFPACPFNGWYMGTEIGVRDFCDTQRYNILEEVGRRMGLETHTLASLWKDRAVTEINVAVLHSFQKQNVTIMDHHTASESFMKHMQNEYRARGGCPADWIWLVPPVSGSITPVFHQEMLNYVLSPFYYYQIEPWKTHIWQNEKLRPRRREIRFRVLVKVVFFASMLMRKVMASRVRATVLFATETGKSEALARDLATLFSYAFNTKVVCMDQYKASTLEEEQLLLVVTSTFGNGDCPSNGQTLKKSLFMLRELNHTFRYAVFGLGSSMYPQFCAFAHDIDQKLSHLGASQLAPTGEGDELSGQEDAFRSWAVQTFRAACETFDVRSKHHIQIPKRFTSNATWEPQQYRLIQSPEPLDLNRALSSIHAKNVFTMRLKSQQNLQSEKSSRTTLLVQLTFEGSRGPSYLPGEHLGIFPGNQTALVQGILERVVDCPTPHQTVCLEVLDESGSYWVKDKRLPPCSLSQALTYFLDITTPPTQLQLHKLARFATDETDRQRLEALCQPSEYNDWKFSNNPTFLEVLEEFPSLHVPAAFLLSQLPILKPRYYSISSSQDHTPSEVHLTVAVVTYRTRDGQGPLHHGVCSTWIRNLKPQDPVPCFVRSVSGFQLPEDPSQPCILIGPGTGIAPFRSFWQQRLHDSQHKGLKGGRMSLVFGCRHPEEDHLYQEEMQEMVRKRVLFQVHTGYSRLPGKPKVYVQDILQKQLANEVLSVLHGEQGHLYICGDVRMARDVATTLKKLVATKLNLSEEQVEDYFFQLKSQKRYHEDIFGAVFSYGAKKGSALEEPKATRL
Description: biochemical. The settings on record: for IC50: read-out: iNOS; for iNOS, % @ 10 μM: 10 μM compound.
Description: Nitric oxide synthase activity was measured by monitoring the conversion of [3H]-arginine to [3H]-citrulline. Mouse inducible nitric oxide synthase (miNOS) was prepared from an extract of LPS-treated RAW 264.7 cells and partially purified by DEAE-Sepharose chromatography. […] Enzyme and inhibitors were incubated at 37° C. for 15 minutes in a reaction volume of 100 mL with the following components added to start the reaction: 50 mM Tris (pH 7.6), 1 mg/ml bovine serum albumin, 1 mM DTT, 2 mM CaCl2, 10 mM FAD, 10 mM tetrahydrobiopterin, 30 mM L-arginine containing L-[2,3-3H]-arginine at 300 cpm/pmole and 1 mM NADPH. […] The reaction was terminated by addition of cold stop buffer containing 10 mM EGTA, 100 mM HEPES, pH 5.5 and 1 mM citrulline. [3H]-Citrulline was separated by chromatography on Dowex 50W X-8 cation exchange resin and radioactivity determined with a liquid scintillation counter.

For data set [2], the target named is T2, Rat brain constitutive nitric oxide synthase (rnNOS) (Rattus norvegicus, UniProt P29476).
T2 construct: prepared from an extract of rat cerebellum and partially purified by DEAE-Sepharose chromatography; from tissue; host or cells: rat cerebellum
T2 sequence (P29476 whole entry): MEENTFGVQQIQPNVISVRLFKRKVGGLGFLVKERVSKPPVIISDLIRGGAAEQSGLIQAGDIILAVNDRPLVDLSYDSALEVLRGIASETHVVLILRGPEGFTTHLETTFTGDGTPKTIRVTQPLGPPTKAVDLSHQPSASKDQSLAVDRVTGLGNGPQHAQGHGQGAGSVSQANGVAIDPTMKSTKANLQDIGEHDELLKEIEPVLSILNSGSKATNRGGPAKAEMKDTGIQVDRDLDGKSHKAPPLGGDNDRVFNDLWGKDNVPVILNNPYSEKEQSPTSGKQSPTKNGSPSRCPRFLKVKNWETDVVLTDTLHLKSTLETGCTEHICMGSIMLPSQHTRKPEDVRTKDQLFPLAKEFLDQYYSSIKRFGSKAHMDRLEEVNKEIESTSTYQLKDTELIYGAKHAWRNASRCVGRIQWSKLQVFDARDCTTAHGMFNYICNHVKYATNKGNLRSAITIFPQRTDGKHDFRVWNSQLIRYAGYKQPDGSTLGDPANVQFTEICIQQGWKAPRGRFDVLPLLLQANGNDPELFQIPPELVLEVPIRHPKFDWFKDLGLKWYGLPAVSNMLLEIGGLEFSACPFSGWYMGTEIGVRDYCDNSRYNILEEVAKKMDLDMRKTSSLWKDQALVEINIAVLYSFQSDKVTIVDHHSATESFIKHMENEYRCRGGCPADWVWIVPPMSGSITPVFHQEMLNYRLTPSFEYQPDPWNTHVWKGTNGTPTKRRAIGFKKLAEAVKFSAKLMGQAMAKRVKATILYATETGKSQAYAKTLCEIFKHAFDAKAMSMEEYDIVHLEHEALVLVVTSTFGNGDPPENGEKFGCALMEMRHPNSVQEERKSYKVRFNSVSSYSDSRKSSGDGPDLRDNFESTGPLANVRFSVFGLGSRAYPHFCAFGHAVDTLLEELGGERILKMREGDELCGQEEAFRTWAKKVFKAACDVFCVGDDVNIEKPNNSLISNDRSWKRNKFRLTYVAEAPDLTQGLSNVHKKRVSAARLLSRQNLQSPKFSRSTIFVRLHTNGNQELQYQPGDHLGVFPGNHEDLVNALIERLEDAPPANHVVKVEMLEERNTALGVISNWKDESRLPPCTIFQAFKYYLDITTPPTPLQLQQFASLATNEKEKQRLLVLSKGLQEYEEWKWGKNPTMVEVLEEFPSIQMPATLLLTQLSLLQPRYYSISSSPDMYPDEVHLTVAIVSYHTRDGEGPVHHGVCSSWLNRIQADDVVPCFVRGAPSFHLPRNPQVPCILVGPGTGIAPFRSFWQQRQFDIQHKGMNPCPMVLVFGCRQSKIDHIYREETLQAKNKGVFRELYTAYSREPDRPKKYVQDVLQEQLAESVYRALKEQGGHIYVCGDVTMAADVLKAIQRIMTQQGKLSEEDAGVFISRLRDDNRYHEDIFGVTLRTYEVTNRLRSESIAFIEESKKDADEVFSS
Description: Citrulline assay for nitric oxide synthase (cNOS). The class given is biochemical. The method, then:
Nitric oxide synthase activity was measured by monitoring the conversion of [3H]-arginine to [3H]-citrulline. Mouse inducible nitric oxide synthase (miNOS) was prepared from an extract of LPS-treated RAW 264.7 cells and partially purified by DEAE-Sepharose chromatography. Rat brain constitutive nitric oxide synthase (rnNOS) was prepared from an extract of rat cerebellum and partially purified by DEAE-Sepharose chromatography. Enzyme and inhibitors were incubated at 37° C. for 15 minutes in a reaction volume of […] with the following components added to start the reaction: 50 mM Tris (pH 7.6), 1 mg/ml bovine serum albumin, 1 mM DTT, 2 mM CaCl2, 10 mM FAD, 10 mM tetrahydrobiopterin, […] L-arginine containing L-[2,3-3H]-arginine at 300 cpm/pmole and 1 mM NADPH. For constitutive NOS, 50 nM calmodulin was also added. The reaction was terminated by addition of cold stop buffer containing 10 mM EGTA, 100 mM HEPES, pH 5.5 and 1 mM citrulline. [3H]-Citrulline was separated by chromatography on Dowex 50W X-8 cation exchange resin and radioactivity determined with a liquid scintillation counter.

Data set [3] relates to intracellular iNOS in LPS-induced RAW 264.7 cells. Put plainly: Raw cell nitrite assay. The data set is classed as cell-based. The settings on record: Mus musculus, read-out: Raw Cell IC50. The method, then: RAW 264.7 cells are plated to confluency on a 96-well tissue culture plate grown overnight (17h) in the presence of LPS to induce NOS. […] The media was removed from each well and the cells are washed twice with Krebs-Ringers-Hepes (25 mM, pH 7.4) with 2 mg/ml glucose. The cells are then placed on ice and incubated with […] of buffer containing L-arginine (30 mM) +/− inhibitors for 1 h. The assay is initiated by warming the plate to 37° C. in a water bath for 1 h. […] To terminate the cellular assay, the plate of cells is placed on ice and the nitrite-containing buffer removed and analyzed for nitrite using a previously published fluorescent determination for nitrite. […] All values are the average of triplicate wells and are compared to a background-subtracted induced set of cells (100% value).

[4] abbreviates: conversion of [3H]-arginine to [3H]-citrulline, 37° C., 15 minutes.
Setting [5] is: printed as % only (inhibition not stated).
The mark [6] stands for this setting: RAW264.7, nitrite production, RAW 264.7 cells, LPS-induced, 1 h at 37° C.
[7] abbreviates: conversion of [3H]-arginine to [3H]-citrulline, 50 nM calmodulin added, read-out: cNOS IC50.
Where [8] appears, read: 100 μM compound, printed as % only (inhibition not stated).

For the compound `CC1CCNC(=N)CC1` (stereo not shown) [Example 70, hexahydro-5-methyl-1H-azepin-2-imine, monohydrochloride], the IC50 stood at 5.9 µM in data set [1] (setting [4]); 32 µM in data set [2]; 24 µM in data set [3] (RAW264.7, 1 h).

With `CN1CCCNC1=N` [Example 23, 1-Methyl-2-iminotetrahydropyrimidine], in data set [1] (setting [5]), the “iNOS, % @ 10 μM” value is on record as 41% @ 10 μM. As a reminder, the melting point is the temperature of the solid-liquid transition. In turn, `CC1CCCNC1=N` (stereo not shown) (as salt: acetate) [Example 9, 2-imino-3-methylpiperidine acetate] registered a melting point of 88 to 100 °C. Turning to `CCC1NC(=N)CC1C` (stereo not shown) [Example 217, 5-ethyl-4-methylpyrrolidin-2-imine, monohydrochloride], the IC50 is 0.17 µM in data set [1] (setting [4]); 1.6 µM in data set [2]; 0.25 µM in data set [3] (RAW264.7, 1 h). With `NC1=NC(c2ccccc2)CCCC1` (stereo not shown) [Example 192, hexahydro-7-phenyl-1H-azepin-2-imine, monohydrochloride], the IC50 came to 12 µM in data set [1]; 179 µM in data set [2]; 31 µM in data set [3] (RAW264.7, 1 h).

The compound `CN1CCCCCC1=N` (as salt: hydroiodid) had a melting point of 137 to 139 °C. Take `CC1CN=C(N)C1` (stereo not shown) [Example 182, 4-methylpyrrolidin-2-imine, monohydrochloride]: the IC50 in data set [1] (setting [4]) was found to be 1.4 µM; in data set [2] it was 14 µM. As to `N=C1CCCCCCCN1` [Example 2, 2-Imino-octamethyleneimine hydrochloride], the IC50 is 2.2 µM in data set [1] (setting [4]); 9.9 µM in data set [2]; > 1000 µM in data set [3] (RAW264.7, 1 h). For `CC1CCC(N)=NC1` (stereo not shown) [Example 7, 2-Imino-5-methylpiperidine acetate], the results for the IC50 in data set [1] (setting [4]) and in data set [2] were 2 µM and 13.3 µM, respectively.

For the compound `CC1CCNC1=N` (stereo not shown) [Example 4, 2-Imino-3-methyltetramethyleneimine hydriodide], the IC50 in data set [1] (setting [4]) is 4.6 µM; in data set [2], 2.4 µM; in data set [3] (RAW264.7, 1 h), 14 µM.

On to `N=C1NCC(CCl)O1` (stereo not shown) [Example 20, 5-Chloromethyl-2-iminooxazolidine], for which the IC50 in data set [1] (setting [4]) was 1 µM; in data set [2], 5 µM; in data set [3] (setting [6]) it was 160 µM.

`CN=C1CCCCCN1` (as salt: hydroiodid): the melting point lay in the range of 169 to 171 °C. With `NC1=NCCCS1` [Example 17, 2-Imino-3-thiapiperidine hydrochloride], the IC50 is 0.8 µM in data set [1] (setting [4]); 2.7 µM in data set [2]; 28 µM in data set [3] (RAW264.7, 1 h). With `CC1CCN=C(N)C1` (stereo not shown) [Example 6, 2-Imino-4-methylpiperidine acetate], in data set [1], the IC50 worked out at 0.055 µM. `CC1CCC(N)=N1` (stereo not shown) [Example 5, 2-Imino-5-methyltetramethyleneimine hydriodide]: the IC50 in data set [1] (setting [4]) came to 3.2 µM; in data set [2], 9.4 µM; in data set [3] (setting [6]), 18 µM.

Take `N=C1N[C@H]2[C@H](CS[C@H]2CCCCC(=O)O)N1` [Example 21, 2-Iminobiotin]: the IC50 in data set [1] (setting [4]) was 40 µM; in data set [2] (setting [7]), 500 µM; in data set [3] (RAW264.7, 1 h), > 1000 µM. As to `NC1=NCCCN1` [Example 14, 2-Iminotetrahydropyrimidine hemihydrosulfate], the IC50 is 23 µM in data set [2] (setting [7]) and > 1000 µM in data set [3] (RAW264.7, 1 h). On to `N=C1NCCO1` [Example 19, 2-Iminooxazolidine], for which the “iNOS, % @ 10 μM” value in data set [1] (setting [5]) is 42% @ 10 μM. Take `C=CCC1CCCCNC1=N` (stereo not shown) [Example 107, hexahydro-3-(2-propenyl)-1H-azepin-2-imine, monohydrochloride]: the IC50 was 3.8 µM in data set [1] (setting [4]); 342 µM in data set [2]; 15 µM in data set [3] (RAW264.7, 1 h). As for `CN1CCCCC1=N` (as salt: hydroiodid), the melting point fell in the range of 157 to 158 °C. For the compound `NC1=NCCCCCC1` [Example 1, 2-Imino-heptamethyleneimine hydrochloride], the IC50 in data set [1] (setting [4]) worked out at 2.1 µM; in data set [2] it was 13.3 µM; in data set [3] (RAW264.7, 1 h), 60 µM. For the compound `CC1CC(N)=NC(C)C1` (stereo not shown) [Example 10, 2-imino-4,6-dimethylpiperidine acetate], the IC50 in data set [1] (setting [4]) was 0.043 µM; in data set [2] (setting [7]), 0.127 µM. For the compound `NC1=NCCCO1` [Example 18, hydrochloride], the IC50 came out at 0.8 µM in data set [1] (setting [4]); 6 µM in data set [2]; 6 µM in data set [3] (RAW264.7, 1 h). Compound `CC1CC(=N)NC(C)C1` (stereo not shown) (as salt: acetate) [Example 10, 2-imino-4,6-dimethylpiperidine acetate] displayed a melting point of 163 to 166 °C.

Regarding `N=C1NCCCC1O` (stereo not shown) [Example 11, 2-Imino-3-hydroxypiperidine acetate], the IC50 amounted to 0.92 µM in data set [1] (setting [4]) and 2.77 µM in data set [2]. The like results for `C[C@@H]1CCCC(N)=NC1` [Example 90, hexahydro-6R-methyl-1H-azepin-2-imine, monohydrochloride] were, in that order, 7 µM and 46 µM. In the case of `N=C1NCCS1` [Example 16, 2-Iminothiazolidine hydrochloride], in data set [3] (setting [6]), the IC50 worked out at 4.3 µM. `CC1CCCN=C1N` (stereo not shown) [Example 9, 2-imino-3-methylpiperidine acetate]: the IC50 is 1.5 µM in data set [1] (setting [4]) and 2.01 µM in data set [2]. Compound `N=C1NCCCC1O` (stereo not shown) (as salt: acetate) [Example 11, 2-Imino-3-hydroxypiperidine acetate] displayed a melting point of 128 to 130 °C. Turning to `N=C1NCCN1` [Example 15, 2-Iminoimidazolidine], the “iNOS, % @ 10 μM” value in data set [1] (setting [5]) was 8% @ 10 μM. For `CC1CCC(=N)NC1` (stereo not shown) (as salt: acetate) [Example 7, 2-Imino-5-methylpiperidine acetate], the melting point is 175 to 178 °C. Turning to `N=C1CCCCN1` [Example 13, 2-Iminopiperidine hydrochloride], the IC50 was determined as 0.6 µM in data set [1] (setting [4]); 2 µM in data set [2]; 14 µM in data set [3] (RAW264.7, 1 h). In the case of `CCC1CCCCNC1=N` (stereo not shown) [Example 60, 3-ethyl-hexahydro-1H-azepin-2-imine, monohydrochloride], the IC50 came out at 32 µM in data set [2] and 3.5 µM in data set [3] (RAW264.7, 1 h).

Compound `Cl.N=C1CC(C(=O)O)CCN1` (stereo not shown) had a melting point of 230 to 234 °C. The same measure, in the same setting: for `CC1CCC(O)C(=N)N1` (stereo not shown) (as salt: acetate) [Example 277, 3-hydroxy-2-imino-6-methylpiperidine acetate] the value was 158 to 160 °C. Take `Cl.N=C1NC[C@H]2CCCC[C@H]12` (relative stereo) [Example 173, (trans)-octahydro-2H-isoindol-1-imine, monohydrochloride]: in data set [1] (setting [5]), the “iNOS, % @ 10 μM” value came out at 42% @ 10 μM. For the compound `CC1(C)CCN=C(N)C1` [Example 170, 4,4-dimethylpiperidin-2-imine, monohydrochloride], in data set [2], the IC50 was 53 µM. For the compound `NC1=NCCC1` [Example 12, 2-iminopyrrolidine hydrochloride], the IC50 was found to be 5.1 µM in data set [1]; 32 µM in data set [2]; 1.8 µM in data set [3] (RAW264.7, 1 h). Regarding `CCOC(=O)CCCC[C@@H]1SC[C@@H]2NC(=N)NC21` (stereo partly shown) [Example 22, 2-Iminobiotin ethyl ester], the IC50 in data set [1] (setting [4]) was 30 µM; in data set [2] it was 1300 µM; in data set [3] (setting [6]), > 1000 µM. Regarding `Cl.N=C1CCc2ccccc2N1` [Example 164, 1,2,3,4-tetrahydroquinolin-2-imine, monohydrochloride], the “iNOS, % @ 100 μM” value in data set [1] (setting [8]) is 60% @ 100 μM. For the same compound, the “cNOS, % @ 100 μM” value in data set [2] (setting [8]) is 74% @ 100 μM.
